Results from PubChem BioAssay (NCI).
Several values for one entry are separate records, joined by “and”; a condition that tells them apart may be missing. Equal values may be shown once.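 48-hour exposure; five concentrations; linearly interpolated endpoints. The concentration for 50% growth inhibition is given as GI50. At the TGI there is no net growth.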

Legend:
Assay in all cases: growth of human tumour cells (NCI), 48 h
[1] = test system: DU-145 prostate
[2] = test system: HCT-116 colon
[3] = test system: HCT-15 colon
[4] = test system: LOX IMVI melanoma
[5] = test system: M14 melanoma
[6] = test system: NCI-H460 lung
[7] = test system: NCI-H522 lung
[8] = test system: OVCAR-4 ovarian
[9] = test system: SF-539 CNS
[10] = test system: SNB-75 CNS

Structure (SMILES) | GI50 [1] [µM] | TGI [1] | GI50 [2] [µM] | TGI [2] [µM] | GI50 [3] [µM] | TGI [3] [µM] | GI50 [4] [µM] | TGI [4] | GI50 [5] [µM] | TGI [5] [µM] | GI50 [6] [µM] | TGI [6] [µM] | GI50 [7] [µM] | TGI [7] [µM] | GI50 [8] [µM] | TGI [8] [µM] | GI50 [9] [µM] | TGI [9] [µM] | GI50 [10] [µM] | TGI [10] [µM]
Nc1ncc(-c2cccc(S(N)(=O)=O)c2)c2scc(-c3ccc(F)c(Cl)c3)c12 | 5.55 | 15.3 µM | 4.34 | 8.29 | 6.59 | > 25 | 4.84 | 9.67 µM | 7.54 | 16.8 | 3.8 | 8.08 | 3.74 | 7.74 | 6.65 | > 23.7 | 5.27 | 13.2 | 6.11 | > 23
C=CC(COC(c1ccccc1)(c1ccccc1)c1ccccc1)N(CC)CC (centres undefined) | 6.54 | 20.2 µM | 3.43 | 14.3 | 2.6 | 13.9 | 4.73 | 18.8 µM | 2.53 | 6.19 | 2.5 | 6.58 | 4.18 | 15.2 | 4.74 | 17.5 | 4.88 | 18.6 | 10.3 | 22.5
CCCCCCCCCCCCCCCC1=NC(C)(C)CN1C(C)C | 1.56 | 2.9 µM | 1.22 | 2.46 | 1.47 | 2.79 | 1.45 | 2.8 µM | 1.57 | 2.91 | 1.73 | 3.11 | 1.55 | 3.02 | 2.04 | 6.37 | 1.63 | 2.98 | 1.47 | 2.94
CC(=O)c1nc2ccccc2n1CC(=O)c1cccc(Cl)c1 | 0.647 | > 31.8 µM | 0.401 | > 100 | 0.246 | > 100 | 0.59 | > 100 µM | 0.262 | > 100 | 0.36 |  | 0.0846 | 0.719 | 0.752 | > 100 | 0.33 | 2.25 | 0.313 | 59.8
Cc1c([N+](=O)[O-])oc2ccc3ccccc3c12 |  | 83.7 µM |  | 34.2 |  | > 100 |  | > 100 µM |  | > 100 |  | > 100 |  | 41.9 |  | > 100 |  | > 100 |  | > 100
Cc1cc(I)cc(CN(C)CCCN2CCN(C)CC2)c1O | 75 | > 100 µM | 12.6 | > 86.1 | 21.1 | 59 | 17.2 | 36.1 µM | 4.67 | 23.9 | 32.8 | > 100 | 46.4 | 97.1 | > 73.1 | > 100 | 16 | 33 | 31.5 | > 100
O=C(O)/C(=C\c1ccncc1)c1cccc2ccccc12 |  | > 100 µM |  | > 100 |  | > 100 |  | > 100 µM |  | > 100 |  | > 100 |  | > 100 |  | > 100 |  | > 100 |  | > 100
O=C(CCc1ccc(O)cc1)N/N=C/c1cc(Br)ccc1O | 3.4 | > 100 µM | 4.34 | > 100 | 2 | > 100 | 2.07 | 16.8 µM | 2.75 | 17.4 | 2.93 | 14.2 | 3.73 | 18.1 | 3.19 | 82 | 4.03 | 35.4 | 5.25 | > 100
Cc1cc(Nc2cc(N)ncn2)c(=O)n2c1C(=O)NC21CCCCC1 | > 100 | > 100 µM | > 100 | > 100 | > 100 | > 100 | > 100 | > 100 µM | > 100 | > 100 | > 100 | > 100 | > 100 | > 100 | > 100 | > 100 | 94.6 | > 100 | 9.32 | > 100
O=C(NC(=S)Nc1cc(Cl)ccc1O)c1cccc(Br)c1 | 12.3 | > 100 µM | 10.8 | > 100 | 4.78 | > 100 | 15.8 | > 100 µM | 26.3 | > 100 | 4.42 | > 100 | 6.65 | > 100 | 4.7 | > 100 | 7.58 | 35.8 | 11.8 | 75.8
C/C(=N\NC(=S)N(C)C)c1ccccn1 |  | 0.993 µM and 3.17 µM | 0.000123 |  | 0.00191 | 16.6 | 0.00215 | 0.141 µM and 0.0176 µM | 0.00884 | 11.5 | 0.0214 | 4.09 |  | 1.98 |  | 10.4 | 0.0516 | 2.77 |  | 14.4
Cc1cc(C(=O)c2ccccc2)c(C)c2c1[nH]c1ccc(Cl)cc12 | 0.112 | > 42.1 µM | 0.0437 | 4.74 | 0.0492 | 5.1 | 0.0642 | 10.3 µM | 0.0456 | > 41.7 | 0.041 | 14.7 | 0.0267 | 4.9 | 3.01 | 60 | 0.0415 | 0.799 | 0.025 | 3.42
Nc1c(C(=O)Nc2cccc(Cl)c2Cl)sc2nc3c(cc12)C(=O)CCC3 | > 100 | > 100 µM | > 100 | > 100 | > 100 | > 100 | > 100 | > 100 µM | > 100 | > 100 | 0.601 | > 100 | > 100 | > 100 | > 100 | > 100 | > 100 | > 100 | > 100 | > 100
CC(C)=CCCC(C)C1=C(O)C(=O)C(C)=CC1=O (centres undefined) |  | 33.3 µM |  | 12.8 |  | 5.75 |  | 15.1 µM |  | 36 |  | > 100 |  | 4.48 |  | 17.4 |  | 41.9 |  | 37.6
